The supplement of paper PMC10307832

Experiments:
Assay in all cases: relative viability (nuclei count vs DMSO), 5 days (fraction); higher = more cells survive
IU1-47 + Olaparib = compound: CC1=CC(=C(N1C2=CC=C(C=C2)Cl)C)C(=O)CN3CCCCC3 [IU1-47] + O=C(c1cc(Cc2n[nH]c(=O)c3ccccc23)ccc1F)N1CCN(C(=O)C2CC2)CC1 [Olaparib] (partner 8 µM)
Outline: (§1)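 Medians of duplicate plates are given as relative viability. That measure is the nuclei count in treated wells divided by the count in vehicle wells. Counts were taken on 4× images of lung cancer cell lines in 1536-well plates, 5 days after pin-tool dosing the day after seeding with one drug alone or a fixed anchor-drug dose plus five library-drug doses (not always all listed) in √10 steps.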

FG-4592 + AZD7762 = compound: Cc1nc(C(=O)NCC(=O)O)c(O)c2ccc(Oc3ccccc3)cc12 [FG-4592] + NC(=O)Nc1cc(-c2cccc(F)c2)sc1C(=O)N[C@H]1CCCNC1 [AZD7762] (partner 0.2 µM)
Outline: as §1

IU1-47 + Luminespib = compound: CC1=CC(=C(N1C2=CC=C(C=C2)Cl)C)C(=O)CN3CCCCC3 [IU1-47] + CCNC(=O)c1noc(-c2cc(C(C)C)c(O)cc2O)c1-c1ccc(CN2CCOCC2)cc1 [Luminespib] (partner 0.01 µM)
Outline: as §1

FG-4592 + Pictilisib = compound: Cc1nc(C(=O)NCC(=O)O)c(O)c2ccc(Oc3ccccc3)cc12 [FG-4592] + CS(=O)(=O)N1CCN(Cc2cc3nc(-c4cccc5[nH]ncc45)nc(N4CCOCC4)c3s2)CC1 [Pictilisib] (partner 1 µM)
Outline: as §1

| Cell Line | relative viability (IU1-47 + Olaparib; first compound 0.08 µM) | relative viability (IU1-47 + Olaparib; first compound 0.253 µM) | relative viability (IU1-47 + Olaparib; first compound 0.8 µM) | relative viability (IU1-47 + Olaparib; first compound 2.53 µM) | relative viability (IU1-47 + Olaparib; first compound 8 µM) | relative viability (FG-4592 + AZD7762; first compound 0.08 µM) | relative viability (FG-4592 + AZD7762; first compound 0.253 µM) | relative viability (FG-4592 + AZD7762; first compound 0.8 µM) | relative viability (FG-4592 + AZD7762; first compound 2.53 µM) | relative viability (FG-4592 + AZD7762; first compound 8 µM) | relative viability (IU1-47 + Luminespib; first compound 0.08 µM) | relative viability (IU1-47 + Luminespib; first compound 0.253 µM) | relative viability (IU1-47 + Luminespib; first compound 0.8 µM) | relative viability (IU1-47 + Luminespib; first compound 8 µM) | relative viability (FG-4592 + Pictilisib; first compound 0.08 µM) | relative viability (FG-4592 + Pictilisib; first compound 0.253 µM) | relative viability (FG-4592 + Pictilisib; first compound 0.8 µM) | relative viability (FG-4592 + Pictilisib; first compound 2.53 µM) | relative viability (FG-4592 + Pictilisib; first compound 8 µM) | relative viability (IU1-47 + Luminespib; first compound 2.53 µM) |
| --- | --- | --- | --- | --- | --- | --- | --- | --- | --- | --- | --- | --- | --- | --- | --- | --- | --- | --- | --- | --- |
| BEN | 1.1 | 1.06 | 1.12 | 1.11 | 0.933 | 0.555 | 0.617 | 0.476 | 0.666 | 0.527 | 0.362 | 0.459 | 0.414 | 0.344 | 0.442 | 0.485 | 0.429 | 0.561 | 0.459 |  |
| NCI-H23 | 0.288 |  | 0.281 | 0.385 | 0.257 | 0.243 | 0.257 | 0.206 | 0.285 | 0.164 | 0.206 | 0.237 | 0.203 | 0.209 | 0.365 | 0.433 | 0.486 | 0.449 | 0.398 | 0.229 |
| NCI-H1395 | 0.46 | 0.432 | 0.44 | 0.452 | 0.412 | 0.446 | 0.396 | 0.413 | 0.385 | 0.396 | 0.678 | 0.715 | 0.547 | 0.813 | 0.747 | 0.622 |  | 0.776 | 0.531 | 0.597 |
| 201T | 0.829 | 0.869 | 0.854 | 0.838 | 0.666 | 0.579 | 0.595 | 0.453 | 0.559 | 0.555 | 1.1 | 1.08 | 1.15 | 1.07 | 0.642 | 0.644 | 0.584 | 0.695 | 0.675 |  |
| NCI-H2170 | 0.705 | 0.652 | 0.634 | 0.693 | 0.652 | 0.755 | 0.834 | 0.816 | 0.817 | 0.643 | 0.706 | 1.13 | 0.759 | 0.994 | 0.348 | 0.28 | 0.274 | 0.359 | 0.275 | 0.66 |
| NCI-H460 | 0.545 | 0.407 | 0.501 | 0.398 | 0.35 | 0.698 | 0.583 | 0.462 | 0.725 | 0.668 | 0.0244 | 0.0322 | 0.0367 | 0.0295 | 0.236 | 0.367 | 0.314 | 0.466 | 0.381 | 0.0341 |
| HCC-15 | 0.75 | 0.722 | 0.767 | 0.711 | 0.662 | 1.29 | 1.25 | 1.14 | 1.18 | 1.25 | 0.442 | 0.379 | 0.389 | 0.358 | 0.65 | 0.723 | 0.738 | 0.729 | 0.784 |  |
| ABC-1 | 1.14 | 1.05 | 0.816 |  | 0.907 | 0.665 | 0.762 | 0.794 | 1.09 | 0.693 | 0.957 | 1.01 | 1.02 | 0.733 | 0.778 |  | 0.55 | 0.7 | 0.539 |  |
| LCLC-103H | 0.794 | 0.831 | 0.779 | 0.77 | 0.737 | 0.609 | 0.741 | 0.635 | 0.785 | 0.686 | 1.11 | 0.982 | 1.03 | 0.989 | 0.5 | 0.512 | 0.509 | 0.714 | 0.654 | 0.818 |
| NCI-H441 | 0.61 | 0.591 | 0.511 | 0.543 | 0.539 | 1.26 | 0.852 | 1.46 | 1 | 0.978 | 0.328 | 0.336 | 0.478 | 0.343 | 0.585 | 0.524 | 0.509 | 0.483 | 0.464 | 0.379 |
| EPLC-272H | 0.77 | 0.867 | 0.684 | 0.851 | 0.92 | 0.194 | 0.426 | 0.224 | 0.181 | 0.15 | 0.382 | 0.261 | 0.221 | 0.315 | 0.276 | 0.26 | 0.28 | 0.37 | 0.434 |  |
